{
  "source": "PubChem BioAssay (NCI)",
  "test_in_all_cases": "NCI-60 cell line screen, 48 h",
  "key": {"786-0 renal": {"system": "786-0 renal"}, "A498 renal": {"system": "A498 renal"}, "A549 NSCLC": {"system": "A549 NSCLC"}, "ACHN renal": {"system": "ACHN renal"}, "BT-549 breast": {"system": "BT-549 breast"}, "CAKI-1 renal": {"system": "CAKI-1 renal"}, "CCRF-CEM leukemia": {"system": "CCRF-CEM leukemia"}, "COLO 205 colon": {"system": "COLO 205 colon"}, "DU-145 prostate": {"system": "DU-145 prostate"}, "EKVX NSCLC": {"system": "EKVX NSCLC"}, "HCT-116 colon": {"system": "HCT-116 colon"}, "HCT-15 colon": {"system": "HCT-15 colon"}, "HOP-62 NSCLC": {"system": "HOP-62 NSCLC"}, "HOP-92 NSCLC": {"system": "HOP-92 NSCLC"}, "HS 578T breast": {"system": "HS 578T breast"}, "HT29 colon": {"system": "HT29 colon"}, "IGROV1 ovarian": {"system": "IGROV1 ovarian"}, "K-562 leukemia": {"system": "K-562 leukemia"}, "KM12 colon": {"system": "KM12 colon"}, "LOX IMVI melanoma": {"system": "LOX IMVI melanoma"}, "M14 melanoma": {"system": "M14 melanoma"}, "MALME-3M melanoma": {"system": "MALME-3M melanoma"}, "MCF7 breast": {"system": "MCF7 breast"}, "MDA-MB-231 breast": {"system": "MDA-MB-231 breast"}, "MDA-MB-435": {"system": "MDA-MB-435"}, "MOLT-4 leukemia": {"system": "MOLT-4 leukemia"}, "NCI-H226 lung": {"system": "NCI-H226 lung"}, "NCI-H23 lung": {"system": "NCI-H23 lung"}},
  "note": "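Tested at 5 concentrations; 48 h exposure; 96-well plates; endpoints linearly interpolated, else capped at highest concentration. GI50 = concentration required for 50% inhibition of growth. Definition used: TGI = concentration required for complete inhibition of growth.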",
  "data": [
    {"smiles": "COc1cc2c(/C=C3\\C(=O)N(C)c4ccc(O)cc43)c[nH]c2cc1C", "values": [
      {"measurement": "GI50", "setting": "786-0 renal", "result": 3.95, "unit": "µM"},
      {"measurement": "TGI", "setting": "786-0 renal", "result": 21, "unit": "µM"},
      {"measurement": "GI50", "setting": "A498 renal", "result": 20.8, "unit": "µM"},
      {"measurement": "TGI", "setting": "A498 renal", "result": 39.6, "unit": "µM"},
      {"measurement": "GI50", "setting": "A549 NSCLC", "result": 3.05, "unit": "µM"},
      {"measurement": "TGI", "setting": "A549 NSCLC", "result": 18.1, "unit": "µM"},
      {"measurement": "GI50", "setting": "ACHN renal", "result": 3.42, "unit": "µM"},
      {"measurement": "TGI", "setting": "ACHN renal", "result": 26.6, "unit": "µM"},
      {"measurement": "GI50", "setting": "BT-549 breast", "result": 1.86, "unit": "µM"},
      {"measurement": "TGI", "setting": "BT-549 breast", "result": 5.44, "unit": "µM"},
      {"measurement": "GI50", "setting": "CAKI-1 renal", "result": 3.79, "unit": "µM"},
      {"measurement": "TGI", "setting": "CAKI-1 renal", "result": 22.2, "unit": "µM"},
      {"measurement": "GI50", "setting": "CCRF-CEM leukemia", "result": 3.35, "unit": "µM"},
      {"measurement": "TGI", "setting": "CCRF-CEM leukemia", "result": 35.9, "unit": "µM"},
      {"measurement": "GI50", "setting": "COLO 205 colon", "result": 3.7, "unit": "µM"},
      {"measurement": "TGI", "setting": "COLO 205 colon", "result": 16.8, "unit": "µM"},
      {"measurement": "GI50", "setting": "DU-145 prostate", "result": 3.56, "unit": "µM"},
      {"measurement": "TGI", "setting": "DU-145 prostate", "result": 16.1, "unit": "µM"},
      {"measurement": "GI50", "setting": "EKVX NSCLC", "result": 4.58, "unit": "µM"},
      {"measurement": "TGI", "setting": "EKVX NSCLC", "result": 24.1, "unit": "µM"},
      {"measurement": "GI50", "setting": "HCT-116 colon", "result": 3.16, "unit": "µM"},
      {"measurement": "TGI", "setting": "HCT-116 colon", "result": 16, "unit": "µM"},
      {"measurement": "GI50", "setting": "HCT-15 colon", "result": 4.75, "unit": "µM"},
      {"measurement": "TGI", "setting": "HCT-15 colon", "result": 67.8, "unit": "µM"},
      {"measurement": "GI50", "setting": "HOP-62 NSCLC", "result": 5.98, "unit": "µM"},
      {"measurement": "TGI", "setting": "HOP-62 NSCLC", "result": 20.1, "unit": "µM"},
      {"measurement": "GI50", "setting": "HOP-92 NSCLC", "result": 14.3, "unit": "µM"},
      {"measurement": "TGI", "setting": "HOP-92 NSCLC", "result": 34.3, "unit": "µM"},
      {"measurement": "GI50", "setting": "HS 578T breast", "result": 4.33, "unit": "µM"},
      {"measurement": "TGI", "setting": "HS 578T breast", "result": "> 100", "unit": "µM"},
      {"measurement": "GI50", "setting": "HT29 colon", "result": 3.67, "unit": "µM"},
      {"measurement": "TGI", "setting": "HT29 colon", "result": "> 100", "unit": "µM"},
      {"measurement": "GI50", "setting": "IGROV1 ovarian", "result": 3.7, "unit": "µM"},
      {"measurement": "TGI", "setting": "IGROV1 ovarian", "result": 22.3, "unit": "µM"},
      {"measurement": "GI50", "setting": "K-562 leukemia", "result": 4.67, "unit": "µM"},
      {"measurement": "TGI", "setting": "K-562 leukemia", "result": "> 100", "unit": "µM"},
      {"measurement": "GI50", "setting": "KM12 colon", "result": 0.854, "unit": "µM"},
      {"measurement": "TGI", "setting": "KM12 colon", "result": 3.52, "unit": "µM"},
      {"measurement": "GI50", "setting": "LOX IMVI melanoma", "result": 2.36, "unit": "µM"},
      {"measurement": "TGI", "setting": "LOX IMVI melanoma", "result": "> 100", "unit": "µM"},
      {"measurement": "GI50", "setting": "M14 melanoma", "result": 2.9, "unit": "µM"},
      {"measurement": "TGI", "setting": "M14 melanoma", "result": 8.4, "unit": "µM"},
      {"measurement": "GI50", "setting": "MALME-3M melanoma", "result": 2.44, "unit": "µM"},
      {"measurement": "TGI", "setting": "MALME-3M melanoma", "result": 7.08, "unit": "µM"},
      {"measurement": "GI50", "setting": "MCF7 breast", "result": 2.28, "unit": "µM"},
      {"measurement": "TGI", "setting": "MCF7 breast", "result": 7.35, "unit": "µM"},
      {"measurement": "GI50", "setting": "MDA-MB-231 breast", "result": 10.9, "unit": "µM"},
      {"measurement": "TGI", "setting": "MDA-MB-231 breast", "result": 44.5, "unit": "µM"},
      {"measurement": "GI50", "setting": "MDA-MB-435", "result": 0.373, "unit": "µM"},
      {"measurement": "TGI", "setting": "MDA-MB-435", "result": 1.5, "unit": "µM"},
      {"measurement": "GI50", "setting": "MOLT-4 leukemia", "result": 3.3, "unit": "µM"},
      {"measurement": "TGI", "setting": "MOLT-4 leukemia", "result": 10.6, "unit": "µM"},
      {"measurement": "GI50", "setting": "NCI-H226 lung", "result": 31.1, "unit": "µM"},
      {"measurement": "TGI", "setting": "NCI-H226 lung", "result": 75.4, "unit": "µM"},
      {"measurement": "GI50", "setting": "NCI-H23 lung", "result": 8.77, "unit": "µM"}
    ]}
  ]
}
